Values joined by “and” are separate entries in the source; they are usually repeats but may differ in a detail not shown here. Identical values can stand only once.
Tested on: BALB/c-mice
Assay: Allergic contact dermatitis model (TDI), mouse ear swelling test
Type: in vivo
Procedure: The anti-inflammatory and anti-allergic effects of compound 1a were assessed in a mouse model of allergic contact dermatitis, a response driven primarily by T helper type 2 (Th2) cells. […] In this model, an allergic dermatitis response is obtained by sensitizing mice to TDI and subsequently challenging them with antigen by topical administration onto the ears. A quantitative assessment of anti-inflammatory and anti-allergic effects of topically or orally administered test compounds is possible by measuring the resulting ear swelling.
Female BALB/c-mice were obtained from Charles River (Sulzfeld, Germany) at age 8 weeks. All animals were housed in groups of eight per cage at 22° C. with a 12 h light/dark-cycle. Water and a standard diet (Aitromin, Lage/Lippe, Germany) were available ad libitum. All animals were acclimatized for one week before experimental procedures were commenced.
Experimental procedures for BALB/c mice housing, TDI sensitization and challenge, and measurement of ear thickness were performed as previously described (Baurner et al., J Pharm Pharmacol. 55:1107-1114 (2003)) with the following modifications. For active sensitization, 100 μL of 5% (w/v) TDI was administered to the shaved and stripped abdominal epidermis on day one, and for the next three consecutive days, 50 μL of 5% (w/v) TDI was applied. The allergic reaction was boosted 21 days later by application of 50 μL of 0.5% (w/v) TDI. For the examination of test compound effects, the left ears were used for the TDI challenge (20 μL of 0.5% in acetone) and ear thickness measured 3 h before and 24 h after challenge.
Group size was n=7 mice unless otherwise stated. Test compounds were freshly prepared before administration.
Administration time: to determine optimal time for administration treatment groups were treated orally by gavage with 100 mg/kg of compound 1a (suspended in phosphate-buffered saline (PBS), 10 mL/kg) 4 or 16 h before topical TDI challenge. Vehicle treated mice received PBS (10 mL/kg) orally, 4 h before challenge.
Dose-response: two groups of mice were treated orally with compound 1a at 20 mg/kg or 100 mg/kg suspended in PBS, 4 h before topical TDI challenge. Vehicle treated mice received PBS orally 4 h before challenge.
Compound 1a was administered to two groups of mice topically in 20 μl of a 2% or 6% solution in acetone/water (1:1). The solution was applied, 2 h before topical TDI challenge by administration of 10 μl onto each of the inner and outer surfaces of the left ears. A vehicle group (n=7) was treated with acetone/water (1:1).
Mean and standard error of the mean (SEM) were calculated from individual ear edema values. […]

## CCCCCCCCCCCCCC[N+](C)(C)CCCS(=O)(=O)[O-] [Compound 1a, 3-(N,N-Dimethylmyristylammonio)-Propanesulfonate]
Oral 100 mg/kg, 4 h before TDI challenge
  Inhibition of mouse ear swelling (allergic contact dermatitis): 52% and 51.7* %
Oral 100 mg/kg, 16 h before TDI challenge
  Inhibition of mouse ear swelling (allergic contact dermatitis): 32.2
Topical 2% solution, 2 h before TDI challenge
  Inhibition of mouse ear swelling (allergic contact dermatitis): 72%
Topical 6% solution, 2 h before TDI challenge
  Inhibition of mouse ear swelling (allergic contact dermatitis): 86%

Source: patent US10829506B2, “Amino- or ammonium-containing sulfonic acid, phosphonic acid and carboxylic acid derivatives and their medical use” (GRI Bio, Inc., priority 2011, dated 2020)
